Test results: patent US20110212186A1, “COMPOSITION FOR TREATING AUTOIMMUNE DISORDERS” (priority 2008, published 2011)

Tests used:
[1] = tested on: Bovine articular cartilage explants; experiment: Chondroitin sulphate (sGAG) release from bovine cartilage explants, anabolic conditions; type: cell-based; details: for effect on accumulated chondroitin sulphate release day 10-23: Oligomin 200 and 400 μg/ml, glucosamine 400 μg/ml, T-ChOS 50-400 μg/ml, A 200 and 400 μg/ml; for accumulative chondroitin sulphate release day 17-24: combination experiment, IGF-1 100 ng/ml
Method: (§1) For cartilage explant experiments, aminosugar concentrations tested were as follows. Oligomin and T-ChOS, 50, 100, 200 and 400 μg/ml in the media. N-acetyl glucosamine (A) and glucosamine (D), 200 and 400 μg/ml in the media. A+D combination were 200 μg/ml each in the media.
(§2) Bovine articular cartilage explants cultures are used as a model for cartilage degenerative diseases that enables experiments in a robust and simple test-model/assay, where the effect of growth factors and drugs on cartilage metabolism can be investigated [ Olsen, A.K., et al., Anabolic and catabolic function of chondrocyte ex vivo is reflected by the metabolic processing of type II collagen. Osteoarthritis and Cartilage, 2007, 15(3): p. 335-342.].
(§3) The knees were opened under semi-sterile conditions in a LAF bench. Cuts of surface articular cartilage were removed in a one-movement-maneuver, removing only the outermost layer. Too deep cuts will contain underlying subchondral bone /chondrosteous material. Uniform explants were harvested from both femur and tibia. Explants from the cartilage situated at the chondyles were avoided. The explants were transferred into a Petri-dish containing PBS+pen/strep (penincillin/streptomycin).
(§4) The explants were individually weighed and transferred into a sterile 96 well plate under semi-sterile conditions in a flow-bench. Prior, the wells were filled with 200 μL PBS+pen/strep, to keep the explants wet after weighing. Then PBS was removed, and medium containing different types and concentration of aminosugars were applied to the wells, 200 μL/well, according to the set-up. Four explant replicates were used for each test. The plates were incubated at 37° C. and 5% CO2 with shaking 50 rpm. The plates were covered in a CO2 permeable plastic bag to limit/avoid contamination from spores. The conditioning medium was replaced every 2nd - 3rd day, and the supernatant was transferred into a new 96 wells plate and stored at −20° C. until end of experiment. Fresh medium different types and concentration of aminosugars were applied to the wells, 200 μL/well, according to the setup every 2nd- 3rd day.
For detection of sulfated glycosaminoglycans (sGAG) that is chondroitin sulphate release, the quantitative dye-binding assay for in vitro analysis of GAG release was used according to the manufacturer's instructions (Wieslab, S).

[2] = tested on: Bovine articular cartilage explants; experiment: Collagen type II formation (PIINP ELISA) in bovine cartilage explants; type: cell-based; details: for effect on PIINP, day 22: Oligomin and T-ChOS 50-400 μg/ml, A and D 200 and 400 μg/ml
Method: as §1, §2, §3
as §4, with “The conditioning medium was replaced every 2nd - 3rd day, and the supernatant was transferred into a new 96 wells plate and stored at −20° C. until end of experiment. Fresh medium different types and concentration of aminosugars were applied to the wells, 200 μL/well, according to the setup every 2nd- 3rd day.” left out
Supernatants were measured for type II collagen formation (PIINP), for aggrecanase-mediated aggrecan degradation. […]
Collagen type II formation is measured by a specific ELISA assay based on an antibody that recognizes an epitope on the PIINP molecule outside the exon 2 (PIIANP). […]

[3] = tested on: human OA cartilage explant; experiment: Collagen type II formation (PIINP) in human OA cartilage explants; type: cell-based; details: different concentrations
Method: Collagen type II formation is measured by a specific ELISA assay based on an antibody that recognizes an epitope on the PIINP molecule outside the exon 2 (PIIANP). Therefore the EUSA is not specific for the HA or the IIB form but reacts with both forms. Cartilage explants were obtained from a knee of a person suffering from osteoarthritis. Explants were kept in growth media under anabolic conditions for 25 days. Fresh media was applied every 2-3 days. Aminosugars (Oligomin, T-ChOS, A and D; different concentration) were kept in media from day 0 to day 25.

[4] = tested on: YKL-40; experiment: Extracellular YKL-40 release in human cartilage explant media; type: cell-based; details: 400 μg/ml
Method: Cartilage explants were obtained from a knee of a person suffering from osteoarthritis. Explants were kept in growth media under anabolic conditions for 25 days. Fresh media was applied every 2-3 days. Aminosugars (Oligomin, T-ChOS, A and D; different concentration) were kept in media from day 0 to day 25. Since YKL-40 is a proposed receptor for the T-ChOS, the extracellular YKL-40 release was analyzed in media at day 4, 11, 15, 20 and 25 in explants treated with 400 μg/ml of T-ChOS, Oligomin and glucosamine (D). […] For the control there was a significant drop in the YKL-40 expression between day 10 and 20. […] Glucosamine had no effect (FIG. 7). […] This relationship disappeared when the T-ChOS group was excluded from the data (no linear regression).

[5] = tested on: human OA articular cartilage explants; experiment: Cell viability by Alamar Blue, human OA articular cartilage explants; type: cell-based; details: linear regression p<0.05
Method: To ensure the specific and non-toxic action of aminosugars, the metabolic activity of chondrocytes were measured by Alamar Blue, which previously has shown to correlate to cell number and cell viability. Cartilage explants were obtained from a knee of a person suffering from osteoarthritis. Explants were kept in growth media under anabolic conditions for 25 days. Fresh media was applied every 2-3 days. Aminosugars (Oligomin, T-ChOS, A and D; different concentration) were kept in media from day 0 to day 25.

[6] = tested on: type II collagen arthritis in rats; experiment: Type II collagen induced rheumatoid arthritis rat model, oral dosing; type: in vivo
Method: Animals used were 10 per group for arthritis-Induced groups, 4/group for non-induced control group), housed 4-5/cage. For the arthritis induction, the animals were anesthetized with Isoflurane and given subcutaneous/intradermal (SC/ID) injections of 300 μl of Freund's Incomplete Adjuvant (Difco, Detroit, Mich.), containing 2 mg/ml bovine type II collagen (Elastin Products, Owensville, Mo.), at the base of the tail and 2 sites on the back on days 0 and 6. Dosing of the various oligomer and/or monomer compositions by oral route (QD at 24 hr intervals) was initiated on day 0 of the study and continued through day 16. Animals were terminated on study day 17. Efficacy evaluation was based on ankle caliper measurements, expressed as area under the curve (AUC), terminal hind paw weights, and histopathologic evaluation of ankles and knees. For statistical analysis various inflammation calculations were performed for the ankle diameter data, Anova and t-tests (parametrical or non-parametrical tests) were applied according to software guidelines ([…]). All animals survived to study termination.

[7] = tested on: Bovine articular cartilage explants; experiment: Extracted cartilage protein content, bovine explants; type: cell-based; details: combination experiment
Method: The cartilage was extracted to determine the cartilage content of various proteins, in comparison of that secreted to the medium.
Cartilage explants were frozen in liquid nitrogen. The frozen explants were pulverized using Bessman Tissue Pulverizer according to the instructions supplied by the manufacturer. The powder was placed in 14 ml tube using frozen scalpel. Ice-cold Digestive Buffer (50 mM Tris.HCL buffer, pH 7.4 containing 0.1M NaCL and 0.1% Triton X-100) was added and the solution homogenized for 30 sec using Polytron PT-MR 3000 homogenizer (Brinkmann, Littau-Switzerland).The homogenate was then centrifuged at 15,000 rpm for 20 min and the supernatant collected and stored at −80° C. until further analysis.

Compound | effect on accumulated chondroitin sulphate release day 10-23 [1] | effect on PIINP, day 22 [2] | effect on accumulated chondroitin sulphate release day 10-23 ([1]; listed as Glucosamine) | accumulative chondroitin sulphate release day 17-24 [1] | accumulated PIINP release (day 20 and day 24) ([2]; combination experiment, T-ChOS 50 and 400 μg/ml, T-ChOS 400 μg/ml + glucosamine 200 μg/ml, glucosamine 200 μg/ml, Oligomin 50-400 μg/ml) | effect on PIINP expression day 18-25 [3] | YKL-40 expression in media, late period (day 15-25) [4] | Cell-viability at day 25 (Alamar Blue), induction [5] | Summed knee scores, non-significant increase vs disease controls ([6]; 21 mg/kg D alone) [%] | Inhibition of summed ankle histopathology parameters ([6]; T-ChOS 7.1 mg/kg (Group 3), D 21.4 mg/kg (Group 4), T-ChOS 7.1 + D 21.4 mg/kg (Group 5)) [%] | overall benefit in the rat arthritis study (summary) ([6]; T-ChOS 7.1 mg/kg alone, D-glucosamine 21.4 mg/kg alone) | accumulative ankle diameter (day 9-17) ([6]; T-ChOS 7.1 mg/kg, D 21.4 mg/kg, combination T-ChOS 7.1 + D 21.4 mg/kg) | extracted cartilage protein assay at day 24 [7]
CC(=O)N[C@H]1C(O)O[C@H](CO)[C@@H](O)[C@@H]1O (stereo partly shown) [N-acetyl glucosamine] | no significant effect | no effect |  |  |  |  |  |  |  |  |  |  | 
N[C@H]1C(O)O[C@H](CO)[C@@H](O)[C@@H]1O (stereo partly shown) [glucosamine] | significant reduction | no effect | same effect | neither T-ChOS nor glucosamine alone did have any significant effect | no effect | no effect | no effect | least | 14 | 12 | no beneficial effect | no effect | 
IGF-1: Insulin-like Growth Factor-1, 100 ng/ml, positive anabolic stimulation control |  |  |  | significant Increase |  |  |  |  |  |  |  |  | did not reveal any significant effect
